For orientation: EC50 means the concentration that produces a half-maximal response.

Read-outs that look alike come from different tables or passages of the source.

The subject of assay [1] is Zucker diabetic fatty (ZDF) rats. The experiment in a line: Glucose and triglyceride levels in a rat diabetes model. It counts as in vivo. The settings on record: 200 mg/kg orally twice a day. How it is done: 64 six-week-old male Zucker diabetic fatty (ZDF) rats with glucose levels of 175-300 mg/dL were randomized and divided into eight dosing groups: 1) vehicle only (0.5% methylcellulose (w/v), 0.2% Tween 80 (w/v); negative control), 2) (+)-KDT501 25 mg/kg, 3) (+)-KDT501 50 mg/kg, 4) (+)-KDT501 100 mg/kg, 5) (+)-KDT501 200 mg/kg, 6) metformin 200 mg/kg (positive control), 7) metformin 200 mg/kg and (+)-KDT501 100 mg/kg, and 8) pioglitazone 30 mg/kg (positive control). Drugs were administered orally twice a day for 33 days.
Animals were weighed at randomization and once per week thereafter, with administration dosages calculated based on the most recent body weight measurements. Blood samples were collected by tail bleed three days prior to randomization, at randomization, and at days 15 and 29 after the start of treatment. These blood samples were used to perform whole blood glucose evaluations using a glucometer, as well as to measure blood triglyceride levels. Body composition was tested by qNMR on days 2 and 29 after the start of treatment. An oral glucose tolerance test (OGTT) was performed on days 31 and 32 after the start of treatment. Rats underwent an overnight fast prior to OGTT, and tail bleeds for glucose and insulin were performed pre-glucose bolus and at 15, 30, 60, 90, and 120 minutes post-glucose bolus. The glucose bolus was 2 g dextrose/kg of body weight. On day 33, a cardiac puncture was performed for PK analysis.

For assay [2], the system named is diet induced obese (DIO) mice. The assay can be described thus: Glucose, insulin, HbA1C and fat mass in high fat diet-induced obesity (DIO) mouse model. The class given is in vivo. To be noted: 200 mg/kg orally twice a day. How it is done: 14 week-old male mice were randomized and divided into seven dosing groups with 16 animals in each group: 1) vehicle only (0.5% methylcellulose (w/v), 0.2% Tween 80 (w/v); negative control), 2) (+)-KDT501 25 mg/kg, 3) (+)-KDT501 50 mg/kg, 4) (+)-KDT501 100 mg/kg, 5) (+)-KDT501 200 mg/kg, 6) metformin 200 mg/kg (positive control), and 7) pioglitazone 30 mg/kg (positive control). Drugs were administered orally twice a day for 30 days.
Animals were weighed at randomization and once per week thereafter, with administration dosages calculated based on the most recent body weight measurements. The mice were maintained on a high fat diet (40% Kcal) (TD95217; prepared by Covance Laboratories, Greenfield, Ind.). Body composition was tested by qNMR on days −5 and 28 after the start of treatment. […]. An oral glucose tolerance test (OGTT) was performed on day 30 after the start of treatment. Mice underwent an overnight fast prior to OGTT, and tail bleeds for glucose and insulin were performed pre-glucose bolus and at 15, 30, 60, 90, and 120 minutes post-glucose bolus. The glucose bolus was 2 g dextrose/kg of body weight. OGTT results were evaluated by area under the curve (AUC) measurements and Dunnett's test.

The target of a further assay is T1, GPR120 (Homo sapiens, UniProt Q5NUL3).
T1 sequence (Q5NUL3 1-361): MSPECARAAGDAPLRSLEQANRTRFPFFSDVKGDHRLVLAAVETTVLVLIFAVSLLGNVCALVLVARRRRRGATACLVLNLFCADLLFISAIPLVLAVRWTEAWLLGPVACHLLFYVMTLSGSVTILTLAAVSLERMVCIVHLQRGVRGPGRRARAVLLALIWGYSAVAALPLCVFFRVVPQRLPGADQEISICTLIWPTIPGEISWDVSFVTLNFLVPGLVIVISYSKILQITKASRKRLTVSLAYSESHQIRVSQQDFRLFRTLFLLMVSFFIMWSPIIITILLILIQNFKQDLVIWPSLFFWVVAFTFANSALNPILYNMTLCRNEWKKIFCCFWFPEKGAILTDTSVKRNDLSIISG
The assay can be described thus: GPR120 activity, intracellular calcium response in CHO-K1/GPR120/Gα15 cells. It counts as cell-based. The method, then: GPR120 activity was measured by intracellular calcium response. CHO-K1/GPR120/Gα15 cells were regularly passaged to maintain optimal cell health and cultured in Ham's F12 supplemented with 10% fetal bovine serum, 200 μg/mL zeocin, and 100 μg/mL hygromycin. Cells were seeded in a 384-well black-wall, clear-bottom plate at a density of 20,000 cell per well in 20 μL of growth medium 18 hours prior to the start of the experiment, and maintained at 37° C./5% CO2. Cells were loaded with calcium-4, and baseline fluorescence readings were obtained from 1 second to 20 seconds using a fluorescent imaging plate reader (FLIPR). At 20 seconds, (+)-KDT501 (5× final concentration) was added to the reading plate, and the fluorescence signal was monitored for 100 seconds (21 seconds to 120 seconds). α-linolenic acid (LA), eicosapentaenoic acid (EPA), and docosahexaenoic acid (DHA) were used as controls. Data acquisition and analysis was performed using ScreenWorks (version 3.1) and exported to Excel. The average fluorescence value for the first 20 seconds was calculated as the baseline reading. The relative fluorescent unit (ΔRFU) intensity values were calculated with the maximal fluorescent units (21 s to 120 s), subtracting the baseline reading. Data analysis wizard written by GenScript was used to analyze EC50. Dose response curves of antagonist were fitted using the GraphPad Prism 4 four parameter logistic equation Y=Bottom+(Top−Bottom)/(1+10^((LogIC50−X)*HillSlope)), where X is the logarithm of concentration and Y is response.
For orientation: Calcium flux is commonly read through the fluorescence of an indicator in the cells.

The target of the next assay is T2, PPARγ (Homo sapiens, UniProt P37231).
T2 sequence (P37231 1-505): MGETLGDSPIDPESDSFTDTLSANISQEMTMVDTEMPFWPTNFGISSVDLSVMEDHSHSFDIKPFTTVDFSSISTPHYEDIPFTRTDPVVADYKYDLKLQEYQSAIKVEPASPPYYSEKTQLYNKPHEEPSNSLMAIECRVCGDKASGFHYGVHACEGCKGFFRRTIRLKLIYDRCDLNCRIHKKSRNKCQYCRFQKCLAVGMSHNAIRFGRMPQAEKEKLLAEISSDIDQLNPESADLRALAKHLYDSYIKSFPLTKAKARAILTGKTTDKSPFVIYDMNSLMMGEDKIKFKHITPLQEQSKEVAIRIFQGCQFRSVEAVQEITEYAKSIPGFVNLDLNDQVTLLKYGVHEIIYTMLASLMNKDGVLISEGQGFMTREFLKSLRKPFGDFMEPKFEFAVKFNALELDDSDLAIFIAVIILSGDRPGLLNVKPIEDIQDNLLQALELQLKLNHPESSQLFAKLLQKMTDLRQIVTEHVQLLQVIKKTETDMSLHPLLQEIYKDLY
The assay can be described thus: PPARγ luciferase reporter assay. The settings on record: reporter cells, 20 hours. The class given is cell-based. The method, then:
The functional effect of (+)-KDT501 on PPARα, PPARδ, and PPARγ activity was evaluated using a PPAR reporter assay (INDIGO Biosciences, PA). This assay utilizes non-human mammalian cells engineered to provide constitutive high level expression of PPARα, PPARδ, or PPARγ and containing a luciferase report gene specific to the appropriate PPAR. Following activation by agonist binding, PPAR induces expression of the luciferase reporter gene. Luciferase activity therefore provides a surrogate for measuring PPAR activity in agonist-treated cells.
Reporter cells were plated on a 96-well plate at 100 μL per well, and 100 μL of (+)-KDT501 at various final concentrations (25, 12.5, 6.25, 3.125, 1.56 and 0.78 μM) was added to each well. […] 0.1% DMSO was also used as a negative control for each assay. Plates are incubated for 20 hours in a humidified incubator at 37° C. and 5% CO2. After incubation, cell medium was discarded and the cells were treated with 100 μL of luciferase detection reagent for 15 minutes. Plates were analyzed using a luminometer (Victor2, Perkin Elmer). Average relative light unit (RLU) and standard deviation were analyzed using GraphPad Prism.
The PPAR activity assays were repeated as described above using both (+)-KDT501(12.5, 6.25, 3.125, 1.56, and 0.78 μM) and (−)-KDT501 (25, 12.5, 6.25, 3.125, 1.56, and 0.78 μM).
For orientation: A reporter such as luciferase makes a cellular process visible.

[3] abbreviates: CHO-K1/GPR120/Gα15 cells, calcium response, read-out: GPR120 agonistic activity EC50.

On to `CN(C)C(=N)N=C(N)N` [metformin, reference compound], for which, in assay [1], the “whole blood glucose levels” value is “slight increase”. The triglyceride levels result in assay [1] (days 15 and 29) was “increase”. Further, the HbA1C result in assay [2] (day 29, versus vehicle-only) is listed as “significant difference”. Further, in assay [2] (day 30), the “blood glucose levels from the OGTT” value was “significant decrease” and the “insulin levels from the OGTT” value was “significant decrease”. Besides, the fat mass result in assay [2] (qNMR day 28) was “reduction in fat mass”.
Regarding `CC/C=C\C/C=C\C/C=C\CCCCCCCC(=O)O` [α-LA, α-linolenic acid], the EC50 at GPR120 stood at 36.1 µM.
Regarding `CCCc1nc2c(C)cc(-c3nc4ccccc4n3C)cc2n1Cc1ccc(-c2ccccc2C(=O)O)cc1` [Telmisartan, telmisartan, reference compound], the PPARγ activity result at PPARγ is “increased PPARγ activity”.
For `CC/C=C\C/C=C\C/C=C\C/C=C\C/C=C\C/C=C\CCC(=O)O` [DHA, docosahexaenoic acid], the EC50 at GPR120 (setting [3]) was determined as 35.3 µM.
As to `CC/C=C\C/C=C\C/C=C\C/C=C\C/C=C\CCCC(=O)O` [EPA, eicosapentaenoic acid], the EC50 on GPR120 (setting [3]) amounted to 116 µM.
